# According to US8318767B2, “Substituted imidazoles as bombesin receptor subtype-3 modulators” (Merck Sharp & Dohme Corp, priority 2006, dated 2012):
# Molecular target: T1, human BRS-3 (Homo sapiens, UniProt P32247)
# T1 construct: expressed in transfected cells
# T1 sequence (P32247 1-399): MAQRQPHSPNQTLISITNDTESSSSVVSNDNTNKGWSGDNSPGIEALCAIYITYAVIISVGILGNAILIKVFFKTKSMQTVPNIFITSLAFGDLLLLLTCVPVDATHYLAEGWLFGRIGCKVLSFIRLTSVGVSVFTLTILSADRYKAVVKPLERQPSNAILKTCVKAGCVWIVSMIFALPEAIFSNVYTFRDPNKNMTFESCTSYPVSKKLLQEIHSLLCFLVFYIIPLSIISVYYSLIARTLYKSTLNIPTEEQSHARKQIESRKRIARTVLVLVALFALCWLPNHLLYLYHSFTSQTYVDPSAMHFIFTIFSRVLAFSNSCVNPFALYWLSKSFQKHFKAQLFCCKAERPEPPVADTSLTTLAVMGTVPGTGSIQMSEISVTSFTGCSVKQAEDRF
# Test: Bombesin Receptor Subtype 3 (BRS3) radioligand binding assay
# Details: selected compounds
# Experimental: Human embryonic kidney (HEK 293) cells expressing human BRS-3 were cultured to confluence and harvested by aspirating the culture medium and rinsing twice with 1×PBS without Mg^++ and Ca^++. Cellstriper Solution (Cellgrow #25-056-C1, 3 mL) was added to each T-175 flask until all cells dissociated and then an additional 15 mL 1×PBS without Mg^++ and Ca^++ were added to each flask. Dissociated cells were collected by centrifuging at 1000 rpm for 10 minutes. Cell pellets were resuspended and homogenized at 4° C. using a Polytron homogenizer (setting 40, 20 stokes) in approximately 10 mL membrane preparation buffer (10 mM Tris pH 7.4, 0.01 mM Pefabloc, 10 μM phosphoramidon and 40 μg/mL Bacitracin) per T175 flask. After centrifugation at 2200 rpm (1000×g) for 10 minutes at 4° C., the supernatant was transferred to a clean centrifuge tube and spun at 18,000 rpm (38,742×g) for 15 minutes. at 4° C. Membranes were resuspended in the above membrane preparation buffer (1 mL/T-175 flask), homogenized, aliquoted, quickly frozen in liquid nitrogen and stored at −80° C.
# For the [^125I]-[D-Tyr^6,β-Ala^11,Phe^13,Nle^14]-Bombesin(6-14), “[^125I]-dY-peptide”, radioligand assay the specific binding of [^125I]-dY-peptide to human BRS3 was measured by filtration assay in 96-well plate format. The receptor membrane (2 μg/well) in binding buffer (50 mM Tris pH 7.4, 5 mM MgCl2, 0.1% BSA and protease inhibitor cocktail) was mixed with compound in DMSO (1% final concentration) and 30 pM [^125I]-dY-peptide. After incubation for 1-2 hours at room temperature, membrane-bound [^125I]-dY-peptide was separated from free [^125I]-dY-peptide by filtering through GF/C filters presoaked in 1% PEI solution. The filters were washed five times with ice-cold washing buffer (1×PBS without Mg^++ and Ca^++). The radioactivity was determined by adding 30 μl of microscintillant/well after each plate was dried at room temperature overnight or placed at 50° C. for 1 hr.
# The radioligand, [^3H]-1-{4-[(4,5-difluoro-2-hydroxycarbonylphenyl)phenyl]}-2-(4-cyclohexylmethyl-1H-imidazol-2-yl)ethane, was used for binding to receptor membranes generated with BRS3 from rat and mouse and was also utilized for the human receptor. Cell membranes (5 to 20 μg/well) were added to binding buffer (25 mM Tris pH 7.4, 10 mM MgCl2, 2 mM EDTA and protease I cocktail) containing compound in DMSO (1% final concentration) and 660 pM [^3H]-biphenyl. After incubation for 1-2 hours at room temperature, membrane bound [^3H]-biphenyl was separated from free radiologand by filtering through GF/C filters presoaked in 1% PEI solution. The filters were washed five times with ice-cold washing buffer (50 mM Tris pH 7.4, 10 mM MgCl2, 2.5 mM EDTA and 0.02% Triton X-100). The radioactivity was determined by adding 30 μl of microscintillant/well after each plate was dried at room temperature overnight or placed at 50° C. for 1 hr.
# A Packard Top Count was used to read the filter plates. The data in % inhibition of binding was plotted vs. the log molar concentration of receptor ligand (compound). The IC50 was reported as the inflection point of the resulting sigmoidal curve.
# The binding assays for the rat and mouse Bombesin Receptor Subtype 3 (BRS3) were performed in a similar fashion.
# An NFATCHO cell line stably expressing human BRS3 cDNA was generated using standard cell biology techniques and used to prepare receptor membranes for the human “[^125I]-dY-peptide binding assay. The cell line was cultured in T175 flasks in Iscove's Modified Dulbecco's Medium with L-glutamine and 25 mM HEPES buffer (Gibco #12440-046) supplemented with 10% FBS (cat#SH30070.03, Hyclone, Logan, Utah), 1×HT Supplement (0.1 mM Sodium Hypoxanthine and 16 μM Thymidine Gibco #11067-030), 2 mM L-glutamine (Gibco #25030-081), 100 units/mL Penicillin-G and 100 μg/mL Streptomycin (Gibco #15140-122) and 1 mg/mL Geneticin (Gibco #10131-027).
row,SMILES,IC50 [nM]
1,"CC(C)(C)Cc1c[nH]c(C(O)Cc2ccc(-c3ccc(F)cn3)cc2)n1 (stereo not drawn) [Example 18, 1-[4-(2,2-dimethylpropyl)-1H-imidazol-2-yl]-2-[4-(5-fluoropyridin-2-yl)phenyl]ethanol]",110
2,"CCC(C)(C)Cc1c[nH]c(C2(Cc3ccc(-c4ccc(F)cn4)cc3)CCCN2)n1 (stereo not drawn) [Example 55, 2-[4-({2-[4-(2,2-dimethylbutyl)-1H-imidazol-2-yl]pyrrolidin-2-yl}methyl)phenyl]-5-fluoropyridine]",5.1
3,"CCNC(Cc1ccc(-c2ccccn2)cc1)c1nc(CC(C)(C)C)c[nH]1 (stereo not drawn) [Example 3, 1-[4-(2,2-dimethylpropyl)-1H-imidazol-2-yl]-N-ethyl-2-(4-pyridin-2-ylphenyl)ethanamine]",245
4,"CC(C)(C)Cc1c[nH]c(C(C)(O)Cc2ccc(-n3cccn3)cc2)n1 (stereo not drawn) [Example 33, 2-[4-(2,2-dimethylpropyl)-1H-imidazol-2-yl]-1-[4-(1H-pyrazol-1-yl)phenyl]propan-2-ol]",195
5,"CC(C)(C)Cc1c[nH]c(C(C)(O)Cc2ccc(-c3ccc(F)cn3)cc2)n1 (stereo not drawn) [Example 15, 2-[4-(2,2-dimethylpropyl)-1H-imidazol-2-yl]-1-[4-(5-fluoropyridin-2-yl)phenyl]propan-2-ol]",190
6,"CCC(C)(C)Cc1c[nH]c(C(Cc2ccc(-c3ccc(F)cn3)cc2)NC)n1 (single isomer, unassigned) [Example 6, 1-[4-(2,2-dimethylbutyl)-1H-imidazol-2-yl]-2-[4-(5-fluoropyridin-2-yl)phenyl]-N-methylethanamine]",285
7,"CC(=O)NC(Cc1ccc(-c2ccc(F)cn2)cc1)c1nc(CC(C)(C)C)c[nH]1 (stereo not drawn) [Example 9, N-{1-[4-(2,2-dimethylpropyl)-1H-imidazol-2-yl]-2-[4-(5-fluoropyridin-2-yl)phenyl]ethyl}acetamide]",220
8,"CCC(C)(C)Cc1c[nH]c(C(C)(O)Cc2ccc(-c3ccc(F)cn3)cc2)n1 (stereo not drawn) [Example 29, 2-[4-(2,2-dimethylbutyl)-1H-imidazol-2-yl]-1-[4-(5-fluoropyridin-2-yl)phenyl]propan-2-ol]",58
9,"CC(C)(C)Cc1c[nH]c(C(O)Cc2ccc(-c3ccccn3)cc2)n1 (stereo not drawn) [Example 1, 1-[4-(2,2-dimethylpropyl)-1H-imidazol-2-yl]-2-(4-pyridin-2-ylphenyl)ethanol]",120
